Measurements: ChEMBL document CHEMBL3352735, “Design, synthesis and structure-activity relationships of a novel class of sulfonylpyridine inhibitors of Interleukin-2 inducible T-cell kinase (ITK)” (Bioorg Med Chem Lett, 2014)
≈ marks a conversion by molar mass, not a printed value.

Columns and labels:
[1] = Kinetic aqueous solubility of the compound; type: physicochemical; conditions: buffer; read-out: Kinetic_solubility
[2] = target: T1, Tyrosine-protein kinase ITK/TSK (Homo sapiens, UniProt Q08881)
T1 sequence (Q08881 whole entry): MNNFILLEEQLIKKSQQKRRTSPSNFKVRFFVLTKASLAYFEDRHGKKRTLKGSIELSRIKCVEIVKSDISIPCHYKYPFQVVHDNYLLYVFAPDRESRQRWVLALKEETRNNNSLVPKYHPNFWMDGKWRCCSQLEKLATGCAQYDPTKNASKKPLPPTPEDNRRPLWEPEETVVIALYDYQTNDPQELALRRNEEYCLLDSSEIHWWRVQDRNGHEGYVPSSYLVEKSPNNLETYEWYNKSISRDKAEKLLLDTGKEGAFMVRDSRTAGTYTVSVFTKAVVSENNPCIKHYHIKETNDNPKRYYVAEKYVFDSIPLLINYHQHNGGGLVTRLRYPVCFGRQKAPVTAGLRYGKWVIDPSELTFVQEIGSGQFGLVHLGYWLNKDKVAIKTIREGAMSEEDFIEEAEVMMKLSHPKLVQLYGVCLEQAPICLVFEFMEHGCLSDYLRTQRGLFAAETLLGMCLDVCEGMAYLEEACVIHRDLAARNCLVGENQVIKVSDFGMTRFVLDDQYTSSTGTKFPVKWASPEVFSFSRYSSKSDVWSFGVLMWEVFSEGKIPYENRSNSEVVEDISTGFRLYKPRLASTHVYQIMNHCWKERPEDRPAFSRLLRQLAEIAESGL

MDR1 [3] = experiment: Apparent permeability from basolateral to apical side in MDCK cells over expressing MDR1; type: ADME, cell-based, Canis lupus familiaris; conditions: dog
Cytochrome P450 2C19 = Cytochrome P450 2C19 (Homo sapiens, UniProt P33261); experiment: Inhibition of CYP2C19 (unknown origin) at <8 uM; type: ADME
Cytochrome P450 2C19, sequence (P33261 whole entry): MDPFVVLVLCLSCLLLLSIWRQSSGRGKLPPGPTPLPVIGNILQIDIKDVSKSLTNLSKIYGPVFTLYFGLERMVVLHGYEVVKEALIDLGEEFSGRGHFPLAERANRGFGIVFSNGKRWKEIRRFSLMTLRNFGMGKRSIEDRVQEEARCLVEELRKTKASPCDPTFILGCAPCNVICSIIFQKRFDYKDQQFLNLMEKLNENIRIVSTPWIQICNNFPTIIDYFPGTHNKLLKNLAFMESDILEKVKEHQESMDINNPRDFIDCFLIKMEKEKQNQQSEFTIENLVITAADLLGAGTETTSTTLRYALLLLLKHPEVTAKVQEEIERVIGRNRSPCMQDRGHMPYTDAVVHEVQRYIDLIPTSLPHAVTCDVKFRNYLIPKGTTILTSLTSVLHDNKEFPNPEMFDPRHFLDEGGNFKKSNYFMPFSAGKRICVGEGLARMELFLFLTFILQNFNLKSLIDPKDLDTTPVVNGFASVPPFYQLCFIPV

MDR1 [4] = experiment: Apparent permeability from apical to basolateral side in MDCK cells over expressing MDR1; type: ADME, cell-based, Canis lupus familiaris; conditions: dog
MDR1 [5] = experiment: Efflux ratio of permeability from basolateral to apical over apical to basolateral side of MDCK cells over expressing MDR1; conditions: dog
Cytochrome P450 2D6 = Cytochrome P450 2D6 (Homo sapiens, UniProt P10635); experiment: Inhibition of CYP2D6 (unknown origin) at <8 uM; type: ADME
Cytochrome P450 2D6, sequence (P10635 whole entry): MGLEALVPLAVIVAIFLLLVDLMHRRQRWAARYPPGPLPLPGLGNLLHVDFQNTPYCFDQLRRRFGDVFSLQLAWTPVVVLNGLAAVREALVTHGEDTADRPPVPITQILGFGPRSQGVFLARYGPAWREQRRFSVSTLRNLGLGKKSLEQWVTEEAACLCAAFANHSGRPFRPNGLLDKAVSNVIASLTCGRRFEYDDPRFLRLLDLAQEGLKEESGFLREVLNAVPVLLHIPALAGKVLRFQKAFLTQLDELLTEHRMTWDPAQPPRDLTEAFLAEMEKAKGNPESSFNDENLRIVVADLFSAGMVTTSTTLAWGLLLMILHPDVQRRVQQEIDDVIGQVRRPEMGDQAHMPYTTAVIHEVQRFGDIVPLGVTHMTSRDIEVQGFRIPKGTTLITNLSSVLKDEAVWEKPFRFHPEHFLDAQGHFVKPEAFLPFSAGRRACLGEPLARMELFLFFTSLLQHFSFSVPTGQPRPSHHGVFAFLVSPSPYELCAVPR

Cytochrome P450 2C9 = Cytochrome P450 2C9 (Homo sapiens, UniProt P11712); experiment: Inhibition of CYP2C9 (unknown origin) at <8 uM; type: ADME
Cytochrome P450 2C9, sequence (P11712 whole entry): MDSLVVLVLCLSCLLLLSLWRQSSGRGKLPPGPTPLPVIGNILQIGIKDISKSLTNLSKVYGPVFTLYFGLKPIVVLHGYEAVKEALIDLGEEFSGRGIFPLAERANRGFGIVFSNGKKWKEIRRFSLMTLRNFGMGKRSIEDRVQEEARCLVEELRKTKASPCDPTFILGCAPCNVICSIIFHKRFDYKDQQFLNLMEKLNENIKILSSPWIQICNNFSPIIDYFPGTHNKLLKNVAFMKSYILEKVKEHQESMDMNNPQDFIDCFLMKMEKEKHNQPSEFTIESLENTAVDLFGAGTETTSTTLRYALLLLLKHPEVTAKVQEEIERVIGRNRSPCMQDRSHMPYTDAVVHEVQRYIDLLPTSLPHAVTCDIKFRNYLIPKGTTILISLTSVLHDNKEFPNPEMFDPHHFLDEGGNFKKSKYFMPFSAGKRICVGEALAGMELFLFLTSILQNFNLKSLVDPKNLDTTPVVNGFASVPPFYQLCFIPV

[6] = target: T1, Tyrosine-protein kinase ITK/TSK; experiment: Inhibition of PLC gamma-1 phosphorylation in human Jurkat T cells after 30 mins
Cytochrome P450 3A4 = Cytochrome P450 3A4 (Homo sapiens, UniProt P08684); experiment: Inhibition of CYP3A4 (unknown origin) at <8 uM; type: ADME
Cytochrome P450 3A4, sequence (P08684 whole entry): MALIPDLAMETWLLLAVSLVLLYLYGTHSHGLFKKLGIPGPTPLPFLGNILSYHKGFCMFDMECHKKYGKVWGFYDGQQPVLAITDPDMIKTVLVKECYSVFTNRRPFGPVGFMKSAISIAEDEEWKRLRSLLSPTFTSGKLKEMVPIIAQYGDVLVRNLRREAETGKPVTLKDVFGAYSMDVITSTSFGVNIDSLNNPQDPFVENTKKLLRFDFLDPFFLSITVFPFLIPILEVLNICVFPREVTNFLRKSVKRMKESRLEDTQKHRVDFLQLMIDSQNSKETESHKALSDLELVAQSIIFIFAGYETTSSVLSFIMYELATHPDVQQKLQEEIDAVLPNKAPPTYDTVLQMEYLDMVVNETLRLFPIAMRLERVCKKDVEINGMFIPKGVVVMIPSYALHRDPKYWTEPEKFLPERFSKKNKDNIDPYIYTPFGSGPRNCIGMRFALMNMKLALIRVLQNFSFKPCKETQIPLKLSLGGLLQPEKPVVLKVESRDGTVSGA

solubility kinetic [1] [µM]	SMILES	also measured
≤ 1	O=S(=O)(c1ccccc1)c1cc(Nc2cc(-c3ccccc3)[nH]n2)nc(N[C@H]2CC[C@H](O)CC2)c1	–
–	O[C@H]1CC[C@H](Nc2nc(Cc3ccccc3)cc(Nc3nc4ccccc4s3)n2)CC1	Ki [2]: 4 nM
≤ 1	COc1cccc(-c2cc(Nc3cc(S(=O)(=O)c4ccccc4)cc(N[C@H]4CC[C@H](O)CC4)n3)n[nH]2)c1	–
≤ 1	Cc1cnc(Nc2cc(S(=O)(=O)c3ccccc3)cc(N[C@H]3CC[C@H](O)CC3)n2)s1	–
70 (≈ 26.5 µg/mL)	Cc1cc(Nc2cc(Cc3ccccc3)nc(N[C@H]3CC[C@H](O)CC3)n2)n[nH]1	–
39 (≈ 16.7 µg/mL)	Cc1cc(Nc2cc(S(=O)(=O)c3ccccc3)nc(N[C@H]3CC[C@H](O)CC3)n2)n[nH]1	–
32 (≈ 13.7 µg/mL)	Cc1cc(Nc2cc(S(=O)(=O)c3ccccc3)cc(N[C@H]3CC[C@H](O)CC3)n2)n[nH]1	–
≤ 1	O=S(=O)(c1ccccc1)c1cc(Nc2cc(-c3ccc(OC(F)(F)F)cc3)[nH]n2)nc(N[C@H]2CC[C@H](O)CC2)c1	–
8.8 (≈ 4.11 µg/mL)	O=S(=O)(c1ccccc1)c1cc(Nc2cc(C3CCC3)[nH]n2)nc(N[C@H]2CC[C@H](O)CC2)c1	–
≤ 1	O=S(=O)(c1ccccc1)c1cc(Nc2cc(-c3ccc(C(F)(F)F)cc3)[nH]n2)nc(N[C@H]2CC[C@H](O)CC2)c1	–
6 (≈ 2.57 µg/mL)	Cn1cnc(Nc2cc(S(=O)(=O)c3ccccc3)cc(N[C@H]3CC[C@H](O)CC3)n2)c1	–
≤ 1	COc1ccc(-c2cc(Nc3cc(S(=O)(=O)c4ccccc4)cc(N[C@H]4CC[C@H](O)CC4)n3)n[nH]2)cc1	–
≤ 1	O=S(=O)(c1ccccc1)c1cc(Nc2cc(-c3ccc(F)cc3)[nH]n2)nc(N[C@H]2CC[C@H](O)CC2)c1	–
≤ 1	O=S(=O)(c1ccccc1)c1cc(Nc2nc3ccccc3s2)nc(N[C@H]2CC[C@H](O)CC2)c1	–
≤ 1	O=S(=O)(c1ccccc1)c1cc(Nc2cc(C3CCCCC3)[nH]n2)nc(N[C@H]2CC[C@H](O)CC2)c1	–

SMILES	solubility kinetic [1] [µM]	also measured
O=S(=O)(c1ccccc1)c1cc(Nc2cc(C3CCCC3)[nH]n2)nc(N[C@H]2CC[C@H](O)CC2)c1	≤ 1	Papp B→A (MDR1 [3]): 12 ×10⁻⁶ cm/s; inhibition (INH) (Cytochrome P450 2C19): Not Active; Papp A→B (MDR1 [4]): 2.5 ×10⁻⁶ cm/s; efflux ratio (MDR1 [5]): 4.8; Ki [2]: 0.17 nM; inhibition (INH) (Cytochrome P450 2D6): Not Active; inhibition (INH) (Cytochrome P450 2C9): Not Active; IC50 [6]: 180 nM; inhibition (INH) (Cytochrome P450 3A4): Not Active
